Here are results for 1 compound from patent US5906820A, “Epidermal growth factor receptor targeted molecules for treatment of inflammatory arthritis” (priority 1997, dated 1999).

The subject of the series is A431 cells. Put plainly: Protein synthesis ([3H]leucine incorporation) assay: inhibition of DAB389 EGF cytotoxicity by chloroquine. Conditions: for % of control Protein Synthesis, + Chloroquine: relative to chloroquine treatment alone.

Consider `CCN(CC)CCCC(C)Nc1ccnc2cc(Cl)ccc12` (stereo not shown) [Chloroquine, chloroquine], for which the “% of control Protein Synthesis, + Chloroquine” value is, setting by setting: (A431 cells, chloroquine 10 μM with DAB389 EGF 1 pm, 20 hr) 100%; (A431 cells, chloroquine 10 μM with DAB389 EGF 10 pm, 20 hr) 61%. Besides, the “blocking of the cytotoxicity of DAB389 EGF” value (A431 cells, chloroquine 10 μM, 20 hr) is “completely blocked”. Besides, for the setting “Homo sapiens, A-431, 20 h, read-out: reduction of protein synthesis by chloroquine treatment alone”, the inhibition at 10 µM stood at 27%.
